# Test results published in patent publication US20260098080A1, “A MODIFIED PROTEIN SCAFFOLD AND USE THEREOF” (EVOLVERITAS BIOTECHNOLÓGIAI KORLÁTOLT FELELOSSÉGU TÁRSASÁG, priority 2022, published 2026).
# Bridges are numbered along the chain shown (N, C = ends). Where no end group is shown, it is not given here.
# Biological target: fXIa (Homo sapiens, UniProt P03951)
# Assay: IC50 on human blood coagulation factor fXIa
# Type: biochemical
# Conditions: 3.3 nM enzyme
# Description: The measurements were done using non-binding microtiter plates (Greiner; #655901) in 100 μL final volume. After some pilot experiments to find the proper inhibitor concentration range, the maximal inhibitor concentration was set to 20 μM for MASP-1, 10 μM for fXIa and 40 μM for fIXa and fXIIa inhibition, and twofold serial dilutions were prepared from the proteins of the present invention. To these solutions, […] to reach a previously optimized final concentration, 10 nM for MASP-1, 50 nM for fIXa, 3.3 nM for fXIa and 27.5 nM for fXIIa.
# The samples were incubated for 10 minutes at room temperature. After adding the substrate (150 μM Z-Lys-S-Benzyl and 300 μM 4,4′-dithiodipyridine (DTDP) co-substrate for MASP-1; 150 μM Z-Gly-Arg-S-Benzyl and 300 μM DTDP co-substrate for fIXa; 300 μM Cbz-GPR-pNA for fXIa and 100 μM H-D-PFR-pNA for fXIIa). The reaction buffer was 50 mM Tris-HCl, 150 mM NaCl, 5 mM CaCl2), 0.1% PEG-8000 pH 7.4 for MASP-1; 20 mM HEPES, 145 mM NaCl, 0.05% Triton-X100 pH 7.4 for fIXa and fXIa; which was complemented with 5 mM CaCl2) for fXIIa.
# The efficacies of the proteins of the present invention were determined in the form of (IC50) values corresponding to inhibitor concentrations that provide 50% inhibition.
# fXIa, sequence (P03951 388-625 limits assumed): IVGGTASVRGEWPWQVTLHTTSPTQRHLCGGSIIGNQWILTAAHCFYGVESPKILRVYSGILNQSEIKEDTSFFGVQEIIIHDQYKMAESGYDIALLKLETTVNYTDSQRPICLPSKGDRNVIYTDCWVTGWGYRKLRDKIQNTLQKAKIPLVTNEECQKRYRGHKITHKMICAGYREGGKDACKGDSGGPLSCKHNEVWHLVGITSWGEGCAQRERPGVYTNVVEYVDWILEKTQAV
# fXIa, sequence (P03951 19-387 partner limits assumed): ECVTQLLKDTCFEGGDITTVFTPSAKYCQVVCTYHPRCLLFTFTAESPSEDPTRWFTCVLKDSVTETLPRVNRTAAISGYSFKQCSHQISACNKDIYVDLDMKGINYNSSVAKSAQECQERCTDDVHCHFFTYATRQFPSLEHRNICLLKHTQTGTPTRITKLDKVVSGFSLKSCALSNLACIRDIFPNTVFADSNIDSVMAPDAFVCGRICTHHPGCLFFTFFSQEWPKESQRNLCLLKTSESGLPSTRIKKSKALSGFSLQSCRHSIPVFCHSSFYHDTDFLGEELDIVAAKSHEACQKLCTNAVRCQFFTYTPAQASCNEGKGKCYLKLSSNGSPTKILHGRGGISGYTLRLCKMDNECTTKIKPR
row,Sequence,IC50 [nM]
1,"KPDFCFLENDPGPCRALKRRYFYNNQTKQCERFYYGGCFGNMNNFVTLEECKNICEDG (disulfide 5-55, 14-38, 30-51) [EVO23]",500
2,"KPDFCFLENDPGPCRALKRRYFYNNQTKQCERFYYGGCLGNMNNFETLEECKNICEDG (disulfide 5-55, 14-38, 30-51) [EVO24]",500
